Consider ten compounds from patent US7645757B2, “Derivatives of heteroaryl-alkylcarbamates, methods for their preparation and use thereof as fatty acid amido hydrolase enzyme inhibitors” (sanofi-aventis, priority 2004, dated 2010).

One data set has as its system male OF1 mice. Description: test for analgesia: PBQ (phenylbenzoquinone)-induced abdominal tractions. Format: in vivo. The conditions noted are these: 10 mg/kg p.o. On the procedure:
The in vivo activity of the compounds of the invention was evaluated in a test for analgesia. Thus, the intraperitoneal (i.p.) administration of PBQ (phenylbenzoquinone, 2 mg/kg in a 0.9% sodium chloride solution comprising 5% of ethanol) to male OF1 mice weighing 25 to 30 g causes abdominal tractions, on average 30 twisting or contracting motions during the period from 5 to 15 minutes after injection. The test compounds are administered, orally (p.o.) or intraperitoneally (i.p.) in suspension in 0.5% Tween 80, 60 minutes or 120 minutes before the administration of PBQ. Under these conditions, the most powerful compounds of the invention reduce by 35 to 70% the number of tractions induced by the PBQ, within a range of doses of between 1 and 30 mg/kg.

The target of data set [1] is T1, enzyme FAAH (Fatty Acid amido Hydrolase) (Mus musculus, UniProt O08914).
T1 construct: The membrane homogenates are prepared at the time of use by homogenization of the tissues with a Polytron; from tissue; host or cells: mouse brain (minus the cerebellum), membrane homogenate
T1 sequence (O08914 1-579): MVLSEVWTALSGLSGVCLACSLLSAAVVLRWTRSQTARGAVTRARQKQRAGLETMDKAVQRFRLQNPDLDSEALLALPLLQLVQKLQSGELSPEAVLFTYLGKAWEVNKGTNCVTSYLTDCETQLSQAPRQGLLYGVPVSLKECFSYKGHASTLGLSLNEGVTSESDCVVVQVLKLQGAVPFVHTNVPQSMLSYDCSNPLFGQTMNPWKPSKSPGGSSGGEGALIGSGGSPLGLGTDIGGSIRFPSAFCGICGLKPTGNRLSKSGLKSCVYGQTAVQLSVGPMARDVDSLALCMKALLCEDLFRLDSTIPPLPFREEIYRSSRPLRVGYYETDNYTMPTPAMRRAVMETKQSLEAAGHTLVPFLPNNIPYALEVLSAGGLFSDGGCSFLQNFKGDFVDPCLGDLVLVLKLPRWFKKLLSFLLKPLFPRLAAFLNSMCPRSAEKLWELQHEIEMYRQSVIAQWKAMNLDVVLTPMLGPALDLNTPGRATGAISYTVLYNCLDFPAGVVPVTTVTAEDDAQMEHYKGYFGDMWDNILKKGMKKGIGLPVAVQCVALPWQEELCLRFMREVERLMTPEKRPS
Description: radioenzymatic test of FAAH inhibition (hydrolysis of ((1-3H)ethanolamine)-anandamide by mouse brain membrane homogenates). Format: biochemical. To be noted: 10 μM anandamide, 15 minutes at 25° C., read-out: IC50 (concentration which inhibits the control enzymatic activity of FAAH by 50%). On the procedure:
The compounds of the invention have formed the subject of pharmacological trials which make it possible to determine their inhibitory effect on the enzyme FAAH (Fatty Acid amido Hydrolase).
Thus, mouse brains (minus the cerebellum) are removed and stored at −80° C. The membrane homogenates are prepared at the time of use by homogenization of the tissues with a Polytron in a 10 mM Tris-HCl buffer (pH 8.0) comprising 150 mM NaCl and 1 mM EDTA. The enzymatic reaction is subsequently carried out in 70 μl of buffer comprising bovine serum albumin free from fatty acids (1 mg/ml). The test compounds, at various concentrations, the ((1-^3H)ethanolamine)-anandamide (specific activity of 15-20 Ci/mmol), diluted to 10 μM with non-radiolabelled anandamide, and the membrane preparation (400 μg of frozen tissue per assay) are successively added. After 15 minutes at 25° C., the enzymatic reaction is halted by addition of 140 μl of chloroform/methanol (2:1). The mixture is stirred for 10 minutes and is then centrifuged at 3500 g for 15 minutes. An aliquot (30 μl) of the aqueous phase comprising the (1-^3H)ethanolamine is counted by liquid scintillation.

In general, melting point refers to the temperature, or range, at which the solid turns liquid. With `CNC(=O)COC(=O)NCCc1ccc(-c2ccccc2)nc1` [Compound 3, 2-(methylamino)-2-oxoethyl 2-(6-phenylpyrid-3-yl)ethylcarbamate], the melting point fell in the range of 130 to 132 °C. In turn, `CNC(=O)COC(=O)NCCCc1cc(-c2ccc(Cl)cc2)ncn1` [Compound 20, 2-(methylamino)-2-oxoethyl 3-[6-(4-chlorophenyl)pyrimidin-4-yl]propylcarbamate] returned a melting point of 147 to 149 °C. In the case of `CNC(=O)COC(=O)NCCCc1cc(-c2ccc(Cl)cc2)no1` [Compound 29, 2-(methylamino)-2-oxoethyl 3-[3-(4-chlorophenyl)isoxazol-5-yl]propylcarbamate], the melting point was 158 to 160 °C. Compound `CNC(=O)COC(=O)NCCCc1cc(-c2ccc(-c3ccccc3)cc2)no1` [Compound 30, 2-(methylamino)-2-oxoethyl 3-[3-(4-phenylphenyl)isoxazol-5-yl]propylcarbamate] displayed a melting point of 198 to 200 °C. On to `NC(=O)COC(=O)NCCCCc1ccncc1` [Compound 37, 2-amino-2-oxoethyl 4-(pyrid-4-yl)butylcarbamate], for which the melting point lay in the range of 124 to 126 °C.

For the compound `CNC(=O)COC(=O)NCCCCc1cc(-c2ccc(Cl)cc2)no1` [Compound 48, 2-(methylamino)-2-oxoethyl 4-[3-(4-chlorophenyl)isoxazol-5-yl]butylcarbamate], the figures for the “reduction of the number of tractions induced by the PBQ” value with male OF1 mice (administered 60 minutes before PBQ) and in the data set on male OF1 mice (administered 120 minutes before PBQ) were 53% and 62%, respectively.

Compound `CNC(=O)COC(=O)NCCCCn1ccc2ccccc21` [Compound 56, 2-(methylamino)-2-oxoethyl 4-(1H-indol-1-yl)butylcarbamate] registered a melting point of 64 to 67 °C.

Compound `CNC(=O)COC(=O)NCCCCn1ccc2cccnc21` [Compound 58, 2-(methylamino)-2-oxoethyl 4-(1H-pyrrolo[2,3-b]pyrid-1-yl)butylcarbamate] yielded a melting point of 52 to 54 °C.

`NC(=O)COC(=O)NCCCCCc1cncc2ccccc12` [Compound 68, 2-amino-2-oxoethyl 5-(isoquinolin-4-yl)pentylcarbamate]: the IC50 in data set [1] is 267 nM. `NC(=O)COC(=O)NCCCC#Cc1cccc2ccccc12` [Compound 71, 2-amino-2-oxoethyl [5-(naphth-1-yl)pent-4-yn-1-yl]carbamate] showed a melting point of 105 to 108 °C.
